Test results from US12077503B2, “Substituted cyclic amides and their use as herbicides” (FMC CORPORATION, priority 2015, dated 2024).

How the values were obtained:
Assay type in all cases: in vivo
[1] = system: Galium (catchweed bedstraw, Galium aparine); assay: Test A postemergence; conditions: for Galium plant response rating: visual injury rating on 0 to 100 scale (0 no effect, 100 complete control)
Method in brief: (§1)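 In a loam soil and sand blend, planted seeds got a preemergence directed soil spray, and young plants at the one- to two-leaf stage, 2–10 cm high, got a postemergence application; ~10 d greenhouse hold; injury rated visually, 0 = none, 100 = complete control.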

Kochia (Kochia scoparia) [2] = assay: Test A postemergence; conditions: for Kochia plant response rating: visual injury rating on 0 to 100 scale (0 no effect, 100 complete control)
Method in brief: as §1

[3] = system: blackgrass (Alopecurus myosuroides); assay: Test A postemergence; conditions: for Blackgrass plant response rating: visual injury rating on 0 to 100 scale (0 no effect, 100 complete control)
Method in brief: as §1

corn (Zea mays) = assay: Test A postemergence; conditions: for Corn plant response rating: visual injury rating on 0 to 100 scale (0 no effect, 100 complete control)
Method in brief: as §1

[4] = system: ragweed (common ragweed, Ambrosia elatior); assay: Test A postemergence; conditions: for Ragweed plant response rating: visual injury rating on 0 to 100 scale (0 no effect, 100 complete control)
Method in brief: as §1

[5] = system: ryegrass, Italian (Italian ryegrass, Lolium multiflorum); assay: Test A postemergence; conditions: for Ryegrass, Italian plant response rating: visual injury rating on 0 to 100 scale (0 no effect, 100 complete control)
Method in brief: as §1

[6] = system: barnyardgrass (Echinochloa crus-galli); assay: Test A postemergence; conditions: for Barnyardgrass plant response rating: visual injury rating on 0 to 100 scale (0 no effect, 100 complete control)
Method in brief: as §1

[7] = system: giant foxtail (Setaria faberii); assay: Test A postemergence; conditions: for Foxtail, Giant plant response rating: visual injury rating on 0 to 100 scale (0 no effect, 100 complete control)
Method in brief: as §1

[8] = system: pigweed (Amaranthus retroflexus); assay: Test A postemergence; conditions: for Pigweed plant response rating: visual injury rating on 0 to 100 scale (0 no effect, 100 complete control)
Method in brief: as §1

[9] = system: wheat (Triticum aestivum); assay: Test A postemergence; conditions: for Wheat plant response rating: visual injury rating on 0 to 100 scale (0 no effect, 100 complete control)
Method in brief: as §1

[10] = system: sedge, umbrella (small-flower umbrella sedge, Cyperus difformis); assay: Test B flooded paddy test; conditions: Flood, 250 g ai/ha; 0 to 100 scale where 0 is no effect and 100 is complete control; 13 to 15 d
Method in brief: (§2)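 Flooding to 3 cm over soil accompanied treatment, which consisted of adding compound to the standing water around 2-leaf plants; depth was then maintained. Visual assessment versus controls followed at 13 to 15 d (scale 0–100, 0 meaning no effect).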

rice (Oryra sativa) = assay: Test B flooded paddy test; conditions: Flood, 250 g ai/ha; 0 to 100 scale where 0 is no effect and 100 is complete control; 13 to 15 d
Method in brief: as §2

[11] = system: ducksalad (Heteranthera limosa); assay: Test B flooded paddy test; conditions: Flood, 250 g ai/ha; 0 to 100 scale where 0 is no effect and 100 is complete control; 13 to 15 d
Method in brief: as §2

[12] = system: barnyardgrass (Echinochloa crus-galli); assay: Test B flooded paddy test; conditions: Flood, 250 g ai/ha; 0 to 100 scale where 0 is no effect and 100 is complete control; 13 to 15 d
Method in brief: as §2

Kochia (Kochia scoparia) [13] = assay: Test A preemergence; conditions: for Plant response rating, Kochia: 125 g ai/ha; for Kochia plant response rating (0 to 100 scale, 0 is no effect, 100 is complete control): visual injury approx. 10 d
Method in brief: as §1

[14] = system: ragweed (common ragweed, Ambrosia elatior); assay: Test A preemergence; conditions: for Plant response rating, Ragweed: 125 g ai/ha; for Ragweed plant response rating (0 to 100 scale, 0 is no effect, 100 is complete control): visual injury approx. 10 d
Method in brief: as §1

[15] = system: ryegrass, Italian (Italian ryegrass, Lolium multiflorum); assay: Test A preemergence; conditions: for Plant response rating, Ryegrass, Italian: 125 g ai/ha; for Ryegrass, Italian plant response rating (0 to 100 scale, 0 is no effect, 100 is complete control): visual injury approx. 10 d
Method in brief: as §1

[16] = system: barnyardgrass (Echinochloa crus-galli); assay: Test A preemergence; conditions: for Plant response rating, Barnyardgrass: 125 g ai/ha; for Barnyardgrass plant response rating (0 to 100 scale, 0 is no effect, 100 is complete control): visual injury approx. 10 d
Method in brief: as §1

[17] = system: giant foxtail (Setaria faberii); assay: Test A preemergence; conditions: for Plant response rating, Foxtail, Giant: 125 g ai/ha; for Foxtail, Giant plant response rating (0 to 100 scale, 0 is no effect, 100 is complete control): visual injury approx. 10 d
Method in brief: as §1

[18] = system: pigweed (Amaranthus retroflexus); assay: Test A preemergence; conditions: for Plant response rating, Pigweed: 125 g ai/ha; for Pigweed plant response rating (0 to 100 scale, 0 is no effect, 100 is complete control): visual injury approx. 10 d
[19] = 500 g ai/ha, postemergence, 0 to 100 scale, 0 no effect, 100 complete control
[20] = Postemergence, 125 g ai/ha, visual injury, 0 to 100 scale (0 no effect, 100 complete control), approx. 10 d
[21] = preemergence, 0 to 100 scale (0 no effect, 100 complete control)
[22] = Preemergence, 500 g ai/ha, 0 is no effect, 100 is complete control
[23] = 125 g ai/ha, postemergence, approx. 10 d
[24] = Postemergence, 500 g ai/ha, 0 to 100 scale where 0 is no effect and 100 is complete control
[25] = Preemergence, visual injury after approximately 10 d, 0 to 100 scale where 0 is no effect and 100 is complete control

Cc1cccc(C2CNC(=O)C2C(=O)Nc2ccccc2C(F)(F)F)c1 (racemic) [Compound 374]
0: Plant response rating, Galium [1, 20] | Plant response rating, Kochia (Kochia (Kochia scoparia) [2]; [19]) | Plant response rating, Kochia (Kochia (Kochia scoparia) [2]; [20]) | Plant response rating, Blackgrass [3, 20] | Plant response rating, Corn (corn (Zea mays); [20]) | Plant response rating, Ragweed [4, 19] | Plant response rating, Ragweed [4, 20] | Plant response rating, Ryegrass, Italian [5, 19] | Plant response rating, Ryegrass, Italian [5, 20] | Plant response rating, Pigweed [8, 19] | Plant response rating, Pigweed [8, 20] | Plant response rating, Wheat [9, 20] | Plant response rating, Sedge, Umbrella [10] | Plant response rating, Kochia (Kochia (Kochia scoparia) [13]; [21]) | Kochia plant response rating (0 to 100 scale) (Kochia (Kochia scoparia) [13]; [22]) | Plant response rating, Ragweed [14, 21] | Ragweed plant response rating (0 to 100 scale) [14, 22] | Plant response rating, Ryegrass, Italian [15, 21] | Plant response rating, Pigweed [18, 21] | Pigweed plant response rating (0 to 100 scale) [18, 22]
30: Plant response rating, Rice (rice (Oryra sativa)) | Ryegrass, Italian plant response rating (0 to 100 scale) [15, 22]
50: Plant response rating, Blackgrass [3, 19] | Plant response rating, Foxtail, Giant [7, 19]
90: Plant response rating, Barnyardgrass [6, 19] | Plant response rating, Barnyardgrass [16, 21] | Barnyardgrass plant response rating (0 to 100 scale) [16, 22] | Plant response rating, Foxtail, Giant [17, 21] | Foxtail, Giant plant response rating (0 to 100 scale) [17, 22]
60: Plant response rating, Barnyardgrass [12]
40: Plant response rating, Galium [1, 19] | Plant response rating, Wheat [9, 19]
80: Plant response rating, Barnyardgrass [6, 20]
95: Plant response rating, Ducksalad [11]
20: Plant response rating, Corn (corn (Zea mays); [19]) | Plant response rating, Foxtail, Giant [7, 20]

O=C1NCC(c2ccnc(C(F)(F)F)c2)C1C(=O)Nc1ccccc1F (racemic) [Compound 513]
30: Plant response rating, Ryegrass, Italian [5, 24] | Pigweed plant response rating [8, 23] | Plant response rating, Wheat [9, 24] | Plant response rating, Rice (rice (Oryra sativa)) | Plant response rating, Barnyardgrass [12] | Ryegrass, Italian plant response rating (0 to 100 scale, 0 is no effect, 100 is complete control) ([15]; Preemergence, 500 g ai/ha)
90: Plant response rating, Barnyardgrass [6, 24] | Plant response rating, Ducksalad [11] | Barnyardgrass plant response rating (0 to 100 scale, 0 is no effect, 100 is complete control) ([16]; Preemergence, 500 g ai/ha) | Plant response rating, Foxtail, Giant [17, 25] | Foxtail, Giant plant response rating (0 to 100 scale, 0 is no effect, 100 is complete control) ([17]; Preemergence, 500 g ai/ha)
40: Plant response rating, Galium [1, 24] | Plant response rating, Blackgrass [3, 24] | Plant response rating, Barnyardgrass [16, 25]
10: Ragweed plant response rating [4, 23]
0: Galium plant response rating [1, 23] | Ryegrass, Italian plant response rating [5, 23] | Wheat plant response rating [9, 23] | Plant response rating, Sedge, Umbrella [10] | Plant response rating, Kochia (Kochia (Kochia scoparia) [13]; [25]) | Plant response rating, Ragweed [14, 25] | Ragweed plant response rating (0 to 100 scale, 0 is no effect, 100 is complete control) ([14]; Preemergence, 500 g ai/ha) | Plant response rating, Pigweed [18, 25] | Pigweed plant response rating (0 to 100 scale, 0 is no effect, 100 is complete control) ([18]; Preemergence, 500 g ai/ha)
80: Barnyardgrass plant response rating [6, 23] | Foxtail, Giant plant response rating [7, 23] | Plant response rating, Foxtail, Giant [7, 24]
50: Plant response rating, Kochia (Kochia (Kochia scoparia) [2]; [24])
20: Kochia plant response rating (Kochia (Kochia scoparia) [2]; [23]) | Blackgrass plant response rating [3, 23] | Corn plant response rating (corn (Zea mays); [23]) | Plant response rating, Ragweed [4, 24] | Kochia plant response rating (0 to 100 scale, 0 is no effect, 100 is complete control) (Kochia (Kochia scoparia) [13]; Preemergence, 500 g ai/ha) | Plant response rating, Ryegrass, Italian [15, 25]
60: Plant response rating, Corn (corn (Zea mays); [24]) | Plant response rating, Pigweed [8, 24]

O=C1NCC(c2cc(F)cc(C(F)(F)F)c2)C1C(=O)Nc1ccccc1F (stereo not drawn) [Compound 489]
70: Plant response rating, Blackgrass [3, 24] | Corn plant response rating (corn (Zea mays); [23]) | Plant response rating, Wheat [9, 24]
40: Plant response rating, Galium [1, 24] | Plant response rating, Kochia (Kochia (Kochia scoparia) [2]; [24]) | Pigweed plant response rating (0 to 100 scale, 0 is no effect, 100 is complete control) ([18]; Preemergence, 500 g ai/ha)
50: Blackgrass plant response rating [3, 23] | Plant response rating, Ryegrass, Italian [5, 24] | Kochia plant response rating (0 to 100 scale, 0 is no effect, 100 is complete control) (Kochia (Kochia scoparia) [13]; Preemergence, 500 g ai/ha)
20: Plant response rating, Pigweed [8, 24] | Plant response rating, Rice (rice (Oryra sativa)) | Plant response rating, Kochia (Kochia (Kochia scoparia) [13]; [25]) | Ryegrass, Italian plant response rating (0 to 100 scale, 0 is no effect, 100 is complete control) ([15]; Preemergence, 500 g ai/ha)
65: Plant response rating, Barnyardgrass [12]
90: Barnyardgrass plant response rating [6, 23] | Plant response rating, Barnyardgrass [6, 24] | Foxtail, Giant plant response rating [7, 23] | Plant response rating, Foxtail, Giant [7, 24] | Plant response rating, Barnyardgrass [16, 25] | Barnyardgrass plant response rating (0 to 100 scale, 0 is no effect, 100 is complete control) ([16]; Preemergence, 500 g ai/ha) | Plant response rating, Foxtail, Giant [17, 25] | Foxtail, Giant plant response rating (0 to 100 scale, 0 is no effect, 100 is complete control) ([17]; Preemergence, 500 g ai/ha)
30: Plant response rating, Ragweed [4, 24] | Ryegrass, Italian plant response rating [5, 23] | Wheat plant response rating [9, 23] | Plant response rating, Ragweed [14, 25] | Ragweed plant response rating (0 to 100 scale, 0 is no effect, 100 is complete control) ([14]; Preemergence, 500 g ai/ha) | Plant response rating, Ryegrass, Italian [15, 25]
0: Galium plant response rating [1, 23] | Kochia plant response rating (Kochia (Kochia scoparia) [2]; [23]) | Ragweed plant response rating [4, 23] | Pigweed plant response rating [8, 23] | Plant response rating, Sedge, Umbrella [10] | Plant response rating, Pigweed [18, 25]
80: Plant response rating, Corn (corn (Zea mays); [24])
100: Plant response rating, Ducksalad [11]
